From patent US20250215029A1 (Recludix Pharma, Inc., priority 2022, published 2025) come the findings set out here.

The term IC50 denotes the concentration that inhibits the measured activity by half.

In experiment [1] the target is T1, Recombinant STAT3 protein (STAT3 (G127-I722)) (Homo sapiens, UniProt P40763).
T1 construct: Recombinant STAT3 protein (STAT3 (G127-I722))
Put plainly: STAT3 Fluorescence Polarization (FP) Assay. Format: binding. As to conditions: STAT3 (G127-I722) 25 nM, probe 5-FAM-GpYLPQTV-NH2 2 nM, 45-minute incubation; read-out: STAT3 (FP assay IC50 class). In outline: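 Displacement of a 2 nM 5-FAM-labelled pY peptide (GpYLPQTV) from 25 nM recombinant STAT3 (G127-I722) was monitored by fluorescence polarization. Incubation lasted 45 min at room temperature in pH 7.4 HEPES buffer containing 1% DMSO.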
In general terms: Polarisation of emitted light reports the rotation of a fluorescent probe.

The target in experiment [2] is T2, Recombinant STAT6 protein (STAT6 (W123-T658)) (Homo sapiens, UniProt P42226).
T2 construct: Recombinant STAT6 protein (STAT6 (W123-T658))
T2 sequence (P42226 123-658): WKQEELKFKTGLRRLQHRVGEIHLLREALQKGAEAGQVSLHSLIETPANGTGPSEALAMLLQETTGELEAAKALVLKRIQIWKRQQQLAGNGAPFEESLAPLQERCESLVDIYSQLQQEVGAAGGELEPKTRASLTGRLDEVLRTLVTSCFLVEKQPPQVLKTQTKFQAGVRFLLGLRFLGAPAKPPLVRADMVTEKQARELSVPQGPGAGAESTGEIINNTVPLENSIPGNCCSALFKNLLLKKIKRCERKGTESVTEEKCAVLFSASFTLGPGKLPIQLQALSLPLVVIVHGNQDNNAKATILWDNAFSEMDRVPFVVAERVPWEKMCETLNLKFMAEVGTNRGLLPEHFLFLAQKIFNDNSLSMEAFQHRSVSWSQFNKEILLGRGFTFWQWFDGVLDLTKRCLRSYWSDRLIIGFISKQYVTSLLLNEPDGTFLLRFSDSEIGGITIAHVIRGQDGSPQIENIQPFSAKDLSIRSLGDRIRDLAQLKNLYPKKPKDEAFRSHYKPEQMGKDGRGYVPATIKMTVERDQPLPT
The experiment can be described thus: STAT6 Fluorescence Polarization (FP) Assay. The format is binding. The following applies: STAT6 (W123-T658) 250 nM, 45-minute incubation, read-out: STAT6 (FP assay IC50 class). In outline:
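Recombinant STAT6 (W123-T658) at 250 nM mixed with 2 nM 5-FAM phosphotyrosine peptide probe in HEPES pH 7.4 buffer with DTT, 1% DMSO final, added to serially diluted compounds. FP (mP) read after 45 min at room temperature; IC50 by nonlinear regression vs log concentration.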

Setting [3] is: probe 5-FAM-ApYKPFQDLI-NH2 2 nM.

SMILES strings stand for the structures. Like-named read-outs stand apart in the source and are kept apart here.

T1 sequence (P40763 127-722): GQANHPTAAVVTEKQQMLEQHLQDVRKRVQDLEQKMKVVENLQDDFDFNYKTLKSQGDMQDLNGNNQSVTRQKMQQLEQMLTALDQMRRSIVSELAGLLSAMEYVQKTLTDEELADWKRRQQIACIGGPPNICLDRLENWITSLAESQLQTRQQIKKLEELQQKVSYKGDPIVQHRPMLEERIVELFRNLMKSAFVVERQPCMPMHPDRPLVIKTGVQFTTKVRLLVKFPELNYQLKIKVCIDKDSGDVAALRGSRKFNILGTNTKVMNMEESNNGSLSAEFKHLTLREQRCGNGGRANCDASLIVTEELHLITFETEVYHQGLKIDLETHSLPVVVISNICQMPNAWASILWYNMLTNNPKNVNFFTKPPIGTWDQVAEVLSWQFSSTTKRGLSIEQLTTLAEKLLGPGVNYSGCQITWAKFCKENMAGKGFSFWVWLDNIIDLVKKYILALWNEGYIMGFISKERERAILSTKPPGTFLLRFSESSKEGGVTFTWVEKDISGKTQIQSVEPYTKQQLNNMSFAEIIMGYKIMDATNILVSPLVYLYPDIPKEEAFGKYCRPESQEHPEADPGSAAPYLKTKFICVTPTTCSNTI

In the case of `N#C[C@@H]1[C@@H](c2cncc(Cl)c2)CN(C(=O)[C@@H]2CC[C@@H]3CCCC[C@H](NC(=O)c4cc5cc([C@H](F)P(=O)(O)O)ccc5s4)C(=O)N32)C12CC2` (single isomer, unassigned) [Compound 845], the IC50 in experiment [1] was 1 to 10 µM; in experiment [2] (probe 5-FAM-Ap[…]-NH2 2 nM), not above 0.3 µM.
Take `N#C[C@@H]1[C@@H](c2cncc(Cl)c2)CN(C(=O)[C@@H]2CC[C@@H]3CCCC[C@H](NC(=O)c4cc5cc(C(F)P(=O)(O)O)ccc5s4)C(=O)N32)C12CC2` (single isomer, unassigned) [Compound 846]: the results for the half-maximal inhibitory concentration (IC50) in experiment [1] and in experiment [2] (probe 5-FAM-Ap[…]-NH2 2 nM) were 1 to 10 µM and 0.3 to 3 µM, respectively.
Turning to `COc1cncc([C@@H]2CN(C(=O)[C@@H]3CC[C@@H]4CCC[C@H](NC(=O)c5cc6cc([C@H](F)P(=O)(O)O)ccc6s5)C(=O)N43)C3(CC3)[C@H]2C#N)c1` (single isomer, unassigned) [Compound 847], the results for the IC50 in experiment [1] and in experiment [2] (setting [3]) were 1 to 10 µM and 0.3 to 3 µM, respectively.
Turning to `COc1cncc([C@H]2CN(C(=O)[C@@H]3CC[C@@H]4CCCC[C@H](NC(=O)c5cc6cc([C@H](F)P(=O)(O)O)ccc6s5)C(=O)N43)C3(CC3)[C@@H]2C#N)c1` (single isomer, unassigned) [Compound 848], the IC50 is 1 to 10 µM in experiment [1] and 0.3 to 3 µM in experiment [2] (probe 5-FAM-Ap[…]-NH2 2 nM).
For `O=C(N[C@H]1CCC[C@H]2CC[C@@H](C(=O)N3CC(c4cncnc4N4CCOCC4)C3)N2C1=O)c1cc2cc([C@H](F)P(=O)(O)O)ccc2s1` (single isomer, unassigned) [Compound 857], the IC50 in experiment [1] was less than 0.1 µM; in experiment [2] (probe 5-FAM-Ap[…]-NH2 2 nM) it was 3 to 30 µM.
For `O=C(N[C@H]1CCC[C@H]2CC[C@@H](C(=O)N3CC(c4cncnc4N4CCOCC4)C3)N2C1=O)c1cc2cc([C@@H](F)P(=O)(O)O)ccc2s1` (single isomer, unassigned) [Compound 861], in that order: less than 0.1 µM and 3 to 30 µM.
On to `COC[C@@H]1CCN1c1ncncc1C1CN(C(=O)[C@@H]2CC[C@@H]3CCC[C@H](NC(=O)c4cc5cc([C@H](F)P(=O)(O)O)ccc5s4)C(=O)N32)C1` (single isomer, unassigned) [Compound 862], for which the half-inhibitory concentration (IC50) in experiment [1] was less than 0.1 µM; in experiment [2] (probe 5-FAM-Ap[…]-NH2 2 nM) it was 3 to 30 µM.
For `N#C[C@@H]1CN(C(=O)[C@@H]2CC[C@@H]3CCCC[C@H](NC(=O)c4cc5cc([C@H](F)P(=O)(O)O)ccc5s4)C(=O)N32)C[C@H]1c1cc[nH]c(=O)c1` (single isomer, unassigned) [Compound 872], in that order: 0.1 to 1 µM and not above 0.3 µM.
For `N#C[C@H]1CN(C(=O)[C@@H]2CC[C@@H]3CCCC[C@H](NC(=O)c4cc5cc(C(F)(F)P(=O)(O)O)ccc5s4)C(=O)N32)C[C@@H]1c1cc[nH]c(=O)c1` (single isomer, unassigned) [Compound 875], in that order: 0.1 to 1 µM and not above 0.3 µM.
For the compound `Cc1cc(C2CN(C(=O)[C@@H]3CC[C@@H]4CCCC[C@H](NC(=O)c5cc6cc(C(F)(F)P(=O)(O)O)ccc6s5)C(=O)N43)CC2C#N)cc(=O)[nH]1` (single isomer, unassigned) [Compound 876], the half-maximal inhibitory concentration (IC50) lay in the range of 1 to 10 µM in experiment [1] and 0.3 to 3 µM in experiment [2] (probe 5-FAM-Ap[…]-NH2 2 nM).
As to `N#C[C@H]1CN(C(=O)[C@@H]2CC[C@@H]3CCCC[C@H](NC(=O)c4cc5cc(CP(=O)(O)O)ccc5s4)C(=O)N32)C[C@@H]1c1cc[nH]c(=O)c1` (single isomer, unassigned) [Compound 878], the IC50 fell in the range of 1 to 10 µM in experiment [1] and 0.3 to 3 µM in experiment [2] (probe 5-FAM-Ap[…]-NH2 2 nM).
Take `O=C(N[C@H]1CCCC[C@H]2CC[C@@H](C(=O)N3C[C@@H](c4ccccc4)CC34CC4)N2C1=O)c1cc2cc(C(F)(F)P(=O)(O)O)ccc2s1` (single isomer, unassigned) [Compound 889]: the IC50 was 1 to 10 µM in experiment [1] and not above 0.3 µM in experiment [2] (probe 5-FAM-Ap[…]-NH2 2 nM).
In the case of `O=C(N[C@H]1CCCC[C@H]2CC[C@@H](C(=O)N3C[C@@H](c4ccccc4)CC34CC4)N2C1=O)c1cc2cc(C(F)(F)P(=O)(O)O)ccc2s1` (single isomer, unassigned) [Compound 890], the IC50 in experiment [1] is 1 to 10 µM; in experiment [2] (setting [3]), not above 0.3 µM.
For `N#C[C@@H]1[C@@H](c2ccccc2)CN(C(=O)[C@@H]2CC[C@@H]3CCCC[C@H](NC(=O)c4ccc5ccc(C(F)P(=O)(O)O)cc5c4)C(=O)N32)C12CC2` (single isomer, unassigned) [Compound 894], the IC50 in experiment [1] is 1 to 10 µM; in experiment [2] (probe 5-FAM-Ap[…]-NH2 2 nM), not above 0.3 µM.
For `CC(c1ccc2ccc(C(=O)N[C@H]3CCCC[C@H]4CC[C@@H](C(=O)N5C[C@@H](c6ccccc6)CC56CC6)N4C3=O)cc2c1)P(=O)(O)O` (single isomer, unassigned) [Compound 897], in that order: 1 to 10 µM and 3 to 30 µM.
On to `O=C(N[C@H]1CCCC[C@H]2CC[C@@H](C(=O)N3C[C@@H](c4cccnc4)CC34CC4)N2C1=O)c1cc2cc([C@H](F)P(=O)(O)O)ccc2s1` (single isomer, unassigned) [Compound 908], for which the IC50 in experiment [1] was 1 to 10 µM; in experiment [2] (probe 5-FAM-Ap[…]-NH2 2 nM), not above 0.3 µM.
For `O=C(N[C@H]1CCCC[C@H]2CC[C@@H](C(=O)N3C[C@H](c4cccnc4)CC34CC4)N2C1=O)c1cc2cc([C@@H](F)P(=O)(O)O)ccc2s1` (single isomer, unassigned) [Compound 909], in that order: 1 to 10 µM and not above 0.3 µM.
Take `O=C(N[C@H]1CCCC[C@H]2CC[C@@H](C(=O)N3C[C@H](c4cccnc4)CC34CC4)N2C1=O)c1cc2cc([C@H](F)P(=O)(O)O)ccc2s1` (single isomer, unassigned) [Compound 911]: the IC50 in experiment [1] is 1 to 10 µM; in experiment [2] (probe 5-FAM-Ap[…]-NH2 2 nM) it was not above 0.3 µM.
Regarding `N#C[C@H]1[C@H](c2ccccc2)CN(C(=O)[C@@H]2CC[C@@H]3CCC[C@H](NC(=O)c4cc5cc([C@H](F)P(=O)(O)O)ccc5s4)C(=O)N32)C12CC2` (single isomer, unassigned) [Compound 916], the IC50 is 1 to 10 µM in experiment [1] and not above 0.3 µM in experiment [2] (probe 5-FAM-Ap[…]-NH2 2 nM).
For `O=C(N[C@H]1CCC[C@H]2CC[C@@H](C(=O)N3C[C@@H](c4cccnc4)CC34CC4)N2C1=O)c1cc2cc([C@@H](F)P(=O)(O)O)ccc2s1` (single isomer, unassigned) [Compound 917], in that order: 1 to 10 µM and not above 0.3 µM.
For `N#C[C@@H]1[C@@H](c2ccccc2)CN(C(=O)[C@@H]2CC[C@@H]3CCC[C@H](NC(=O)c4cc5cc([C@H](F)P(=O)(O)O)ccc5s4)C(=O)N32)C12CC2` (single isomer, unassigned) [Compound 919], in that order: 1 to 10 µM and not above 0.3 µM.
With `N#C[C@@H]1[C@@H](c2ccccc2)CN(C(=O)[C@@H]2CC[C@@H]3CCC[C@H](NC(=O)c4cc5cc([C@@H](F)P(=O)(O)O)ccc5s4)C(=O)N32)C12CC2` (single isomer, unassigned) [Compound 920], the concentration for half-maximal inhibition (IC50) in experiment [1] is 1 to 10 µM; in experiment [2] (probe 5-FAM-Ap[…]-NH2 2 nM), not above 0.3 µM.
On to `N#C[C@@H]1[C@@H](c2ccccc2)CN(C(=O)[C@@H]2CC[C@@H]3CCCC[C@H](NC(=O)c4cc5cc([C@@H](F)P(=O)(O)O)ccc5s4)C(=O)N32)C12CC2` (single isomer, unassigned) [Compound 923], for which the IC50 is 1 to 10 µM in experiment [1] and not above 0.3 µM in experiment [2] (probe 5-FAM-Ap[…]-NH2 2 nM).
Consider `N#C[C@H]1[C@H](c2ccccc2)CN(C(=O)[C@@H]2CC[C@@H]3CCCC[C@H](NC(=O)c4cc5cc([C@H](F)P(=O)(O)O)ccc5s4)C(=O)N32)C12CC2` (single isomer, unassigned) [Compound 924], for which the IC50 in experiment [1] was 1 to 10 µM; in experiment [2] (probe 5-FAM-Ap[…]-NH2 2 nM), not above 0.3 µM.
As to `N#C[C@@H]1[C@@H](c2ccccc2)CN(C(=O)[C@@H]2CC[C@@H]3C[C@@H](N4CCC4)CC[C@H](NC(=O)c4cc5cc([C@H](F)P(=O)(O)O)ccc5s4)C(=O)N32)C12CC2` (single isomer, unassigned) [Compound 934], the figures for the half-inhibitory concentration (IC50) in experiment [1] and in experiment [2] (probe 5-FAM-Ap[…]-NH2 2 nM) were 1 to 10 µM and not above 0.3 µM, respectively.
For `N#C[C@@H]1[C@@H](c2ccccc2)CN(C(=O)[C@@H]2CC[C@@H]3C[C@@H](N4CCC4)CC[C@H](NC(=O)c4cc5cc([C@@H](F)P(=O)(O)O)ccc5s4)C(=O)N32)C12CC2` (single isomer, unassigned) [Compound 935], in that order: 1 to 10 µM and not above 0.3 µM.
As for `N#C[C@H]1[C@H](c2ccccc2)CN(C(=O)[C@@H]2CC[C@@H]3C[C@@H](N4CCC4)CC[C@H](NC(=O)c4cc5cc([C@H](F)P(=O)(O)O)ccc5s4)C(=O)N32)C12CC2` (single isomer, unassigned) [Compound 936], the values for the IC50 in experiment [1] and in experiment [2] (probe 5-FAM-Ap[…]-NH2 2 nM) were 1 to 10 µM and not above 0.3 µM, respectively.
